Assay results published in PubChem BioAssay AID1996.
Values after ≈ are worked out from the molar mass of the structure shown.

Settings: buffer; pH 7.4; 200.0 µM

solubility kinetic	Structure (SMILES)
0.5 µg/mL (≈ 1.31 µM)	Cc1ccc(OCC(=O)NC(=S)Nc2ccc(Br)cn2)cc1
24.9 µg/mL (≈ 93.3 µM)	O=C(CN1CCCCCC1)Nc1ccccc1Cl
0.9 µg/mL (≈ 2.51 µM)	O=C1c2ccccc2C(Nc2ccccc2)N1Cc1ccc2c(c1)OCO2 (stereo not given)
> 35.3 µg/mL	CCCNC(=O)Nc1cccc(NC(C)=O)c1
46.8 µg/mL (≈ 147 µM)	Cc1cccc(NC(=S)NC23CN4CN(CN(C4)C2)C3)c1C
35.9 µg/mL (≈ 149 µM)	CCN(Cc1ccccc1)C(=O)c1cccnc1
> 40.1 µg/mL	O=c1[nH]c2ccc(S(=O)(=O)N3CCCC3)cc2[nH]1
< 0.3 µg/mL	Fc1ccc(-c2noc(-c3ccc4c(c3)CCO4)n2)cc1
> 55.9 µg/mL	O=C(NCCC(=O)N1CCN(c2ccccn2)CC1)c1ccc(Cl)cc1
< 0.6 µg/mL	Fc1ccc(-c2onc3ccc(C4OCCO4)cc23)cc1
> 40.9 µg/mL	CC1CCCCC1NC(=O)COc1ccccc1C#N (stereo not given)
< 0.4 µg/mL	Cc1ccc(NC(=O)c2cc3c(=O)oc4ccc(C)cc4c3s2)nc1
1.9 µg/mL (≈ 5.7 µM)	CC(C)c1ccc(S(=O)(=O)NCc2ccc3c(c2)OCO3)cc1
> 49.6 µg/mL	CC(=O)Nc1ccccc1NC(=O)c1ccccc1-c1ccccc1
> 69.4 µg/mL	CCOC(=O)C1=C(C)NC(C)=C(C(=O)OCC)C1C(=O)OCC(=O)NCc1ccc(F)cc1
> 39.2 µg/mL	COc1ccccc1CCn1c(N)cc(=O)[nH]c1=O
> 56.2 µg/mL	CCOC(=O)c1c(C)[nH]c(C)c1C(=O)COC(=O)c1cccnc1OCC
> 50.6 µg/mL	O=C(CC1SC(N2CCOCC2)=NC1=O)Nc1ccccc1F (stereo not given)
38.8 µg/mL (≈ 137 µM)	O=C(Cc1ccc(Br)cc1)N1CCOCC1
> 52 µg/mL	O=C(COC(=O)CN1CCSC1=O)Nc1ccc(F)cc1Cl
< 0.3 µg/mL	CCOC(=O)/C(C#N)=C/c1cccn1-c1ccc(Cl)cc1
> 41.3 µg/mL	COc1ccccc1NC(=O)c1cnc(SC)nc1
> 56.8 µg/mL	COc1cc(/C=C2\SC(=O)NC2=O)ccc1OCC(=O)N1CCOCC1

solubility kinetic	Structure (SMILES)
3.1 µg/mL (≈ 9.59 µM)	Cc1cccc(OCC(=O)NCc2nc(-c3ccccc3)no2)c1
23.8 µg/mL (≈ 51.9 µM)	C=CCN(Cc1ccc(Cl)s1)C(=O)c1ccc(F)c(S(=O)(=O)N2CCOCC2)c1
4.6 µg/mL (≈ 12.5 µM)	COc1cc(CNC(=O)c2cc3ccccc3oc2=O)cc(OC)c1OC
< 0.2 µg/mL	O=C(Nc1cccnc1Cl)c1cc(-c2ccc(O)cc2)on1
7.2 µg/mL (≈ 25.5 µM)	Cc1ccc(NC(=O)Cn2c(=O)oc3ccccc32)cc1
> 47.8 µg/mL	COc1ccc(CNC(=O)c2cccnc2SC)cc1OC
> 47.2 µg/mL	Cc1onc(-c2ccccc2)c1-c1ccc(S(N)(=O)=O)cc1
33.7 µg/mL (≈ 141 µM)	OCCNc1c2ccccc2nc2ccccc12
26.7 µg/mL (≈ 120 µM)	S=c1nccc(-c2ccc(Cl)cc2)[nH]1
1 µg/mL (≈ 2.45 µM)	Cc1oc(-c2ccc(Cl)cc2)cc1C(=O)NC1CCN(Cc2ccccc2)CC1
> 53.9 µg/mL	Cc1cc(OCC(=O)N2CCC(C(=O)O)CC2)c2c(C)cc(=O)oc2c1
4.1 µg/mL (≈ 9.8 µM)	CCOc1ccccc1C(=O)NCC(=O)OCC(=O)c1c(N)n(C)c(=O)n(C)c1=O
50.8 µg/mL (≈ 146 µM)	COc1ccccc1CN(C)C(=O)CNC(=O)c1cccc(Cl)c1
22.8 µg/mL (≈ 127 µM)	Nc1nc(C(F)(F)F)cc(=O)[nH]1
> 47.9 µg/mL	CC(C)c1onc(C(=O)Nc2ccc3c(c2)OCO3)c1[N+](=O)[O-]
0.4 µg/mL (≈ 1.17 µM)	CCCc1nc2oc3c(NCC(C)O)ncnc3c2c2c1CCCC2 (stereo not given)
< 0.1 µg/mL	O=[N+]([O-])c1cccc(Nc2c([N+](=O)[O-])ccc3nonc23)c1
> 30.9 µg/mL	Oc1ccccc1CNc1nccs1
2.4 µg/mL (≈ 11.5 µM)	Nc1cccc2cc(-c3ccccc3)oc12
3.6 µg/mL (≈ 11.7 µM)	COc1cc([N+](=O)[O-])ccc1NC(=O)COC(=O)C=C(C)C
34.9 µg/mL (≈ 144 µM)	CCCCOc1ccc(N=Cc2ccc[nH]2)cc1
1.9 µg/mL (≈ 5.53 µM)	Clc1ccc(-c2nc3ccccn3c2CN2CCSCC2)cc1
35.5 µg/mL (≈ 138 µM)	O=C1CCC(=O)N1Cc1c(Cl)cccc1Cl

solubility kinetic	Structure (SMILES)
9.8 µg/mL (≈ 36.5 µM)	CC(C)NC(=O)CN1C(=O)c2cccc3cccc1c23
> 46.1 µg/mL	CC(=O)NCCc1nc2ccccc2n1Cc1cccc(C)c1
2.6 µg/mL (≈ 10.5 µM)	CC(C)CCNC(=O)C(=O)NCc1ccccc1
55.3 µg/mL (≈ 143 µM)	COc1ccc(C(=O)N(c2ccc(C)cc2)C2C=CS(=O)(=O)C2)cc1OC (stereo not given)
< 0.4 µg/mL	CCc1ccc(N2C(=O)CN(Cc3sccc3C)C2=S)cc1
46.5 µg/mL (≈ 140 µM)	COc1cccc(C2=NOC(C(=O)Nc3cc(C)on3)C2)c1OC (stereo not given)
> 34.2 µg/mL	CCN(CC)C1CCS(=O)(=O)C1.Cl (stereo not given)
> 53.8 µg/mL	Cc1ccc(S(=O)(=O)Nc2ccccc2CNC2CCCCC2)cc1
> 47 µg/mL	CC(C)(C)NC(=O)/C(=C/c1cccnc1)NC(=O)c1ccco1
19.8 µg/mL (≈ 60.8 µM)	CCN(CC)C(=O)c1sc2nc(-c3ccccc3)ccc2c1N
> 34.4 µg/mL	COc1cccc(NC(=O)c2cccnn2)c1
48.2 µg/mL	Cn1c(C2=C(O)CN(Cc3ccccc3)C2=N)[n+](C)c2ccccc21.[Cl-]
2.2 µg/mL (≈ 6.91 µM)	COc1cc(OC)cc(C2=NC3(CCC(C)CC3)NC2=S)c1 (stereo not given)
42.2 µg/mL (≈ 127 µM)	Cc1ccc(/C=C/C(=O)Nc2cc(S(N)(=O)=O)ccc2O)cc1
> 48.9 µg/mL	Cc1cc2c(cc1C)N(Cc1ccc(Cl)cc1)C1=NCCCN12
17.8 µg/mL (≈ 60.3 µM)	O=C1NCCN/C1=C\C(=O)c1ccc(Br)cc1
> 32.9 µg/mL	O=C(O)C1=C(Nc2ccccc2)OCC1=O
34 µg/mL (≈ 139 µM)	Cc1noc(C)c1C(=O)N(C)Cc1ccccc1
> 41.5 µg/mL	Cc1ccc(NC(=O)C(=O)NCC2CCCO2)cc1C (stereo not given)
43.3 µg/mL (≈ 146 µM)	O=C1COc2ccc(S(=O)(=O)N3CCCCC3)cc2N1
0.3 µg/mL (≈ 0.911 µM)	Cc1ccc(-c2nc3ncccc3o2)cc1NC(=O)c1ccccc1
> 42.2 µg/mL	CCC(C(=O)OC)(C(=O)OC)c1ccc([N+](=O)[O-])cc1
17.5 µg/mL (≈ 36.3 µM)	CCCCN1C(=O)c2ccc(C(=O)N(C)CC(=O)Nc3ccc(OCC)c(OCC)c3)cc2C1=O

solubility kinetic	Structure (SMILES)
> 30.3 µg/mL	CC[N+](C)(C)c1cccc(O)c1.[Cl-]
6.6 µg/mL (≈ 20.6 µM)	Cc1nc(Cl)sc1C(=O)Nc1ccc(C(F)(F)F)cc1
47.3 µg/mL (≈ 147 µM)	O=C(COc1ccccc1Cl)NCCNC(=O)c1ccco1
41.9 µg/mL (≈ 144 µM)	COC(=O)C1CCCN1C(=O)C12CC3CC(CC(C3)C1)C2 (stereo not given)
> 48.9 µg/mL	Cc1ccc(C(=O)N(C)CC(=O)Nc2ccc(F)c(F)c2F)o1
44.2 µg/mL (≈ 145 µM)	CC12CCC(C(=O)NCc3ccc(F)cc3)(OC1=O)C2(C)C (stereo not given)
1.4 µg/mL (≈ 3.56 µM)	O=C(COC(=O)c1cncc(Br)c1)NC12CC3CC(CC(C3)C1)C2
5.3 µg/mL (≈ 13.5 µM)	O=C(COC(=O)COc1ccc2c(c1)CCC2)Nc1ccccc1C(F)(F)F
< 0.7 µg/mL	O=C(Nc1ccc2c(c1)OCCO2)c1ccc(Cl)c(Cl)c1
> 42.8 µg/mL	Cc1cccn2cc(CCNC(=O)c3cccs3)nc12
> 38.4 µg/mL	O=c1[nH]c(=S)[nH]c2nc(-c3ccccc3)cnc12
43.2 µg/mL (≈ 108 µM)	CCN(CCS(=O)(=O)c1ccc(Cl)cc1)C(=O)Nc1ccc(Cl)cc1
8.4 µg/mL (≈ 29.5 µM)	O=C(CNc1cccc(F)c1)N1CCc2ccccc2C1
38.9 µg/mL (≈ 124 µM)	O=C(CNCc1cccc(Cl)c1)N1CCc2ccccc2C1
4.9 µg/mL (≈ 16.1 µM)	Cc1nc2ccc(NC(=O)c3cc(Cl)ccn3)cc2s1
> 40.1 µg/mL	Nc1nc2c(ncn2C2C[C@H](O)[C@@H](CO)O2)c(=O)[nH]1 (stereo not given in full)
< 0.2 µg/mL	Fc1ccc(NC(=S)N2CCN(c3ccccn3)CC2)cc1Cl
31.9 µg/mL (≈ 107 µM)	Cc1ccc(S(=O)(=O)N2CCCCC2)c2nsnc12
> 50.9 µg/mL	CCOc1ccc(CN(C)C(=O)c2cc3ccccc3o2)cc1OC
15 µg/mL (≈ 49.1 µM)	O=[N+]([O-])c1ccc(CN2CCN(c3ccc(F)cc3)CC2)o1
21.4 µg/mL (≈ 97.1 µM)	CCC(CC)NC(=O)Nc1ccc(C)cc1
39.9 µg/mL (≈ 132 µM)	COc1cccc(OCC(=O)O/N=C(\N)c2ccncc2)c1
> 43 µg/mL	Cc1ccc(S(=O)(=O)Nc2ccc3[nH]ccc3c2)cc1

solubility kinetic	Structure (SMILES)
33.2 µg/mL (≈ 124 µM)	COc1cccc(/C=N/c2nc3ccccc3[nH]2)c1O
33 µg/mL (≈ 107 µM)	COc1cc(C)c(Cl)cc1S(=O)(=O)N1CCSC1
> 52 µg/mL	O=C(c1ccc(F)cc1Cl)N1CCN(CCc2ccccc2)CC1
38.9 µg/mL (≈ 115 µM)	COc1ccc(C(=O)NCC(O)CN2CCOCC2)cc1[N+](=O)[O-] (stereo not given)
33.3 µg/mL (≈ 116 µM)	O=C1CN(C(=O)c2ccc(Cl)nc2)c2ccccc2N1
3.7 µg/mL (≈ 13.1 µM)	COCCCNc1oc(/C=C/c2ccccc2)nc1C#N
> 51.2 µg/mL	Cc1ccc(OCC(=O)NCCCNC(=O)c2cccnc2)cc1C
> 34.2 µg/mL	Cl.O=C(O)CC1NCCc2ccccc21 (stereo not given)
29.8 µg/mL (≈ 128 µM)	Cc1ccc(CC(=O)Nc2nccs2)cc1
> 26.3 µg/mL	O=C1CCC(=O)N1c1ccccc1
13.7 µg/mL (≈ 43.5 µM)	Cc1ccc(CC2CC(=O)N(c3cc(Cl)ccn3)C2=O)cc1 (stereo not given)
< 0.3 µg/mL	COC(=O)Nc1nc(-c2cc(Cl)ccc2Cl)cs1
10.5 µg/mL (≈ 32 µM)	COc1ccccc1C(=O)NCC(=O)Nc1ccc2c(c1)OCO2
> 69.2 µg/mL	CC(=O)Nc1ccc(NC(=O)COC(=O)c2cc(S(=O)(=O)N3CCCC3)ccc2O)cc1
4.2 µg/mL (≈ 14.2 µM)	O=Cc1c(NCc2ccccc2F)c2ccccc2[nH]c1=O
> 50.6 µg/mL	COc1cc(/C=C2\N=C(c3ccccc3)OC2=O)ccc1OC(C)=O
> 48.7 µg/mL	CCn1cc(CN(C)S(=O)(=O)c2cccc([N+](=O)[O-])c2)cn1
2.7 µg/mL (≈ 9.14 µM)	Cc1ccc2c(c1)C(=O)C(=O)N2CCCOc1ccccc1
46.7 µg/mL (≈ 135 µM)	Cc1ccc(C(=O)C2CCN(C(=S)NCC3CCCO3)CC2)cc1 (stereo not given)
> 49.6 µg/mL	CN1C(=O)N(c2nnc(C(C)(C)C)s2)C(=O)C1c1ccccc1 (stereo not given)
38 µg/mL (≈ 113 µM)	COc1ccc(CCNC(=O)c2cccc3ccccc23)cc1OC
7.3 µg/mL (≈ 21.5 µM)	CCc1ccc(N2CC(C)Cn3c2nc2c3c(=O)[nH]c(=O)n2C)cc1 (stereo not given)
47.5 µg/mL (≈ 141 µM)	COc1ccc(S(=O)(=O)Nc2ccccc2C(N)=O)cc1OC

Structure (SMILES)	solubility kinetic
Cc1ccc(C2(O)CN3CCC2CC3)cc1.Cl (stereo not given)	> 38.1 µg/mL
CCOC(=O)c1c(C)n(Cc2ccccc2)c2ccc(O)cc12	< 0.7 µg/mL
OC1CCCCC1N1CCC(c2ccccc2)CC1 (stereo not given)	> 38.9 µg/mL
CC(OC(=O)c1cn(C)c2ccccc12)C(=O)N1CCCC1 (stereo not given)	> 45.1 µg/mL
O=C(NCCN1CCOCC1)c1ccc(Cl)nc1	> 40.5 µg/mL
